From US9175011B2, “Morpholino substituted urea or carbamate derivatives as MTOR inhibitors” (CELLZOME LIMITED, priority 2011, dated 2015)
pIC50: −log10 of the molar value.

Assays:
[1] = biological target: T1, PI3K alpha (PI3Kα) (Homo sapiens, UniProt P42336); test: kinobeads assay, PI3K alpha; type: binding; conditions: Jurkat cell lysate, read-out: Inhibition values (IC50) PI3Ka
T1 construct: Jurkat cells were homogenized in a Potter S homogenizer in lysis buffer; endogenous in cells; host or cells: Jurkat, clone E6-1 (ATCC TIB-152) lysate
Protocol: (§1) The compounds of the present invention as described were tested in the mTOR kinobeads assay as described below. Briefly, test compounds (at various concentrations) and the affinity matrix (1:1 mixture of beads with immobilized phenylthiazole ligand 1 and beads with immobilized phenylmorpholin-chromen ligand; WO 2009/098021) were added to cell lysate aliquots and allowed to bind to the proteins in the lysate sample. After the incubation time the beads with captured proteins were separated from the lysate. Bound proteins were then eluted and the presence of mTOR, PI3K alpha (PI3Kα), PI3K beta (PI3Kb), PI3K gamma (PI3Kg), PI3K delta (PI3Kd) and DNA-dependent protein kinase (DNA-PK) was detected and quantified using a specific antibody in a dot blot procedure and the Odyssey infrared detection system. Dose response curves for individual kinases were generated and IC50 values calculated. Kinobeads assays for PI3 kinases (WO-A 2008/015013) and for kinase selectivity profiling (WO 2009/098021) have been previously described.
(§2) The affinity matrix (beads with immobilized phenylmorpholin-chromen ligand) was washed three times with 15 ml of 1×DP buffer containing 0.2% NP40 (IGEPAL® CA-630, Sigma, #13021) and then resuspended in 5.5 ml of 1×DP buffer containing 0.2% NP40 (10% beads slurry).
(§3) 5×DP buffer: 250 mM Tris-HCl pH 7.4, 25% Glycerol, 7.5 mM MgCl2, 750 mM NaCl, 5 mM Na3VO4, filter the 5×-lysis buffer through 0.22 μm filter and store in aliquots at −80° C. The 5×DP buffer is diluted to 1×DP buffer containing 1 mM DTT and 25 mM NaF.
(§4) Stock solutions of test compounds were prepared in DMSO. In a 96 well plate 30 μl solution of diluted test compounds at 5 mM in DMSO were prepared. Starting with this solution a 1:3 dilution series (9 steps) was prepared. For control experiments (no test compound) a buffer containing 2% DMSO was used. Compound PI-103 served as a positive control (Calbiochem catalogue number 528100).
(§5) Jurkat cells (ATCC catalogue number TIB-152 Jurkat, clone E6-1) were grown in 1 liter Spinner flasks (Integra Biosciences, #182101) in suspension in RPMI 1640 medium (Invitrogen, #21875-034) supplemented with 10% Fetal Bovine Serum (Invitrogen) at a density between 0.15×10^6 and 1.2×10^6 cells/ml. Cells were harvested by centrifugation, washed once with 1×PBS buffer (Invitrogen, #14190-094) and cell pellets were frozen in liquid nitrogen and subsequently stored at −80° C.
(§6) Jurkat cells were homogenized in a Potter S homogenizer in lysis buffer: 50 mM Tris-HCl, 0.8% NP40, 5% glycerol, 150 mM NaCl, 1.5 mM MgCl2, 25 mM NaF, 1 mM sodium vanadate, 1 mM DTT, pH 7.5. One complete EDTA-free tablet (protease inhibitor cocktail, Roche Diagnostics, 1873580) per 25 ml buffer was added. The material was dounced 10 times using a mechanized POTTER S, transferred to 50 ml falcon tubes, incubated for 30 minutes on ice and spun down for 10 min at 20,000 g at 4° C. (10,000 rpm in Sorvall SLA600, precooled). The supernatant was transferred to an ultracentrifuge (UZ)-polycarbonate tube (Beckmann, 355654) and spun for 1 hour at 100.000 g at 4° C. (33.500 rpm in Ti50.2, precooled). The supernatant was transferred again to a fresh 50 ml falcon tube, the protein concentration was determined by a Bradford assay (BioRad) and samples containing 50 mg of protein per aliquot were prepared. The samples were immediately used for experiments or frozen in liquid nitrogen and stored frozen at −80° C.
(§7) Jurkat cell lysate (approximately 50 mg protein per plate) was thawed in a water bath at room temperature and then kept on ice. To the thawed cell lysate 1×DP 0.8% NP40 buffer containing protease inhibitors (1 tablet for 25 ml buffer; EDTA-free protease inhibitor cocktail; Roche Diagnostics 1873580) was added in order to reach a final protein concentration of 5 mg/ml total protein. The diluted cell lysate was stored on ice. […]

[2] = test system: S6RP serine-240/244 phosphorylation; test: In vitro phospho-S6 cellular assay (HEK293T/17); type: cell-based; conditions: Homo sapiens; HEK293T/17 cells, 2 hours, pS6RP Ser240/244; read-out: Inhibition values (IC50) pS6
Description: Activation of mTOR signaling results in phosphorylation of several downstream targets. In cells, mTOR exists in two different protein complexes. The mTOR Complex-1 (mTORC1) phosphorylates and activates S6 Kinase 1 (S6K1) and S6 Kinase 2 (S6K2) (also known as p70S6K) which then phosphorylate S6 Ribosomal Protein (S6RP) (also known as RPS6)3. S6RP is phosphorylated on serine 235, senile 236, serine 240 and serine 244 by both pS6K1 and pS6K2. The mTOR Complex-2 (mTORC2) phosphorylates AKT on serine 473 which activates the AKT signaling pathway.
The assay measures a test compound's inhibition of S6RP serine-240/244 phosphorylation and inhibition of Akt serine-473 phosphorylation in human embryonic kidney derived HEK293T/17 cells (ATCC CRL-11268).
The HEK293T/17 cell line is maintained in DMEM media (Invitrogen catalogue number 41965-039) supplemented with 10% FCS at 37° C. in a 5% CO2 humidified incubator. Cells are seeded in 96-well plates at 40,000 cells/well (pS6RP S240/244 assay) or 80,000 cells/well (pAkt 5473 assay) in 90 μl growth media (DMEM, 2% FCS). Plates are incubated for 1 hour in a humidified incubator to allow the cells to adhere. Cells are treated with 8 concentrations of test compounds or DMSO alone for controls (final DMSO concentration 0.1%) and incubated at 37° C. for 2 hours. Then 20 μl of 5× concentrated lysis buffer (750 mM NaCl, 100 mM Tris pH7.4, 5 mM ADTA, 5 mM EGTA, 5% Triton X-100) is added, plates are sealed and incubated for 15 minutes at 4° C. with gentle shaking After cell lysis, 25 μl cell lysate is transferred to a MesoScale plate coated with an antibody to pS6RP Ser240/244 (MesoScale Discovery K150DGD-3) or an antibody to pAkt Ser 473 (MesoScale Discovery K151DGD-3). Plates have been blocked before by incubation with 150 μl MesoScale Discovery Blocking Solution-A for 1 hour at room temperature followed by washing with 150 μl 1×Tris wash buffer per well. After the transfer of the cell lysate to the MSD plate, the pS6RP (or pAkt) protein is captured on the coated antibody by incubation at room temperature for 1 hour with gentle shaking. After the capture step the plate is washed three times with 150 μl of 1× Tris wash buffer per well. Then 25 μl detection antibody conjugated with a Sulfo-Tag is added and incubated for 1 hour at room temperature with gentle shaking. Subsequently the antibody solution is removed and the plate is washed 3 times with 150 μl 1×Tris wash buffer per well and 150 μl Read buffer is added. The plates are analysed on a MSD 2400 Plate Reader (MesoScale Discovery). Data analysis is performed using nonlinear regression for a sigmoidal dose-response with a variable slope.

[3] = biological target: T2, DNA-dependent protein kinase (DNA-PK) (Homo sapiens, UniProt P78527); test: kinobeads assay, DNA-PK; type: binding; conditions: Jurkat cell lysate, read-out: Inhibition values (IC50) DNA-PK
T2 construct: Jurkat cells were homogenized in a Potter S homogenizer in lysis buffer; endogenous in cells; host or cells: Jurkat, clone E6-1 (ATCC TIB-152) lysate
Protocol: as §1, §2, §3, §4, §5, §6, §7

[4] = biological target: T3, PI3K delta (PI3Kd) (Homo sapiens, UniProt O00329); test: kinobeads assay, PI3K delta; type: binding; conditions: Jurkat cell lysate, read-out: Inhibition values (IC50) PI3Kd
T3 construct: Jurkat cells were homogenized in a Potter S homogenizer in lysis buffer; endogenous in cells; host or cells: Jurkat, clone E6-1 (ATCC TIB-152) lysate
Protocol: as §1, §2, §3, §4, §5, §6, §7

[5] = biological target: T4, PI3K beta (PI3Kb) (Homo sapiens, UniProt P42338); test: kinobeads assay, PI3K beta; type: binding; conditions: Jurkat cell lysate, read-out: Inhibition values (IC50) PI3Kb
T4 construct: Jurkat cells were homogenized in a Potter S homogenizer in lysis buffer; endogenous in cells; host or cells: Jurkat, clone E6-1 (ATCC TIB-152) lysate
Protocol: as §1, §2, §3, §4, §5, §6, §7

[6] = biological target: T5, PI3K gamma (PI3Kg) (Homo sapiens, UniProt P48736); test: kinobeads assay, PI3K gamma; type: binding; conditions: Jurkat cell lysate, read-out: Inhibition values (IC50) PI3Kg
T5 construct: Jurkat cells were homogenized in a Potter S homogenizer in lysis buffer; endogenous in cells; host or cells: Jurkat, clone E6-1 (ATCC TIB-152) lysate
Protocol: as §1, §2, §3, §4, §5, §6, §7

[7] = biological target: T6, mTOR (Homo sapiens, UniProt P42345); test: mTOR kinobeads assay (Jurkat cell lysate, dot blot detection); type: binding; conditions: read-out: Inhibition values (IC50) mTor
T6 construct: Jurkat cells were homogenized in a Potter S homogenizer in lysis buffer; endogenous in cells; host or cells: Jurkat, clone E6-1 (ATCC TIB-152) lysate
Protocol: as §1, §2, §3, §4, §5, §6, §7

T4 sequence (P42338 whole entry): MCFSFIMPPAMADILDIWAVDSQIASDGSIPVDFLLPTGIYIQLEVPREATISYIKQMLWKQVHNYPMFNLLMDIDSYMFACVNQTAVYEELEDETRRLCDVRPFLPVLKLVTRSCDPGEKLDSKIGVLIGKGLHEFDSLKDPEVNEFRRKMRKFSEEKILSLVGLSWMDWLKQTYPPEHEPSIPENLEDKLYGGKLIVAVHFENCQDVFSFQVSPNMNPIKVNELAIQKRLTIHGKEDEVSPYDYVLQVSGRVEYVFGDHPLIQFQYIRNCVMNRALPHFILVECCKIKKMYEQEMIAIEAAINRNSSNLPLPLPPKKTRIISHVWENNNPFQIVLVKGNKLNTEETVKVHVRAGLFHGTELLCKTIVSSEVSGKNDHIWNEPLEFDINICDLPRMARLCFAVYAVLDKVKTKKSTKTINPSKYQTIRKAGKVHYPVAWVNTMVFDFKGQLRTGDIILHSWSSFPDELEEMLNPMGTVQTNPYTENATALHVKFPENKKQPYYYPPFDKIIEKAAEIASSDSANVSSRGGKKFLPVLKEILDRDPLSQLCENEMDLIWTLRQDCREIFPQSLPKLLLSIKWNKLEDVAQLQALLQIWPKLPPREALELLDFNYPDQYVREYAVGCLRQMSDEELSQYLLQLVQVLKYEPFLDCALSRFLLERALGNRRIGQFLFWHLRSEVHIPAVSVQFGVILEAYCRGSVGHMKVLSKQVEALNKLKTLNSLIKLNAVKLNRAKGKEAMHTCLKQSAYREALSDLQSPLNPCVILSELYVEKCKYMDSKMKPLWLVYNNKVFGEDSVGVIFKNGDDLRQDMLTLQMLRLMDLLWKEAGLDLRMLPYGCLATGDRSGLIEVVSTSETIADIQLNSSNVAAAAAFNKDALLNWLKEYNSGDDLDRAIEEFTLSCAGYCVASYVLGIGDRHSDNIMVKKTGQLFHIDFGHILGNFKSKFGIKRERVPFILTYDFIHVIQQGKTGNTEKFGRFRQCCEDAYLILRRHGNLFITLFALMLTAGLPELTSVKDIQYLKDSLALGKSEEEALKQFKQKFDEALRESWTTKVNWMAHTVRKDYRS
T4 sequence (P27986 whole entry partner): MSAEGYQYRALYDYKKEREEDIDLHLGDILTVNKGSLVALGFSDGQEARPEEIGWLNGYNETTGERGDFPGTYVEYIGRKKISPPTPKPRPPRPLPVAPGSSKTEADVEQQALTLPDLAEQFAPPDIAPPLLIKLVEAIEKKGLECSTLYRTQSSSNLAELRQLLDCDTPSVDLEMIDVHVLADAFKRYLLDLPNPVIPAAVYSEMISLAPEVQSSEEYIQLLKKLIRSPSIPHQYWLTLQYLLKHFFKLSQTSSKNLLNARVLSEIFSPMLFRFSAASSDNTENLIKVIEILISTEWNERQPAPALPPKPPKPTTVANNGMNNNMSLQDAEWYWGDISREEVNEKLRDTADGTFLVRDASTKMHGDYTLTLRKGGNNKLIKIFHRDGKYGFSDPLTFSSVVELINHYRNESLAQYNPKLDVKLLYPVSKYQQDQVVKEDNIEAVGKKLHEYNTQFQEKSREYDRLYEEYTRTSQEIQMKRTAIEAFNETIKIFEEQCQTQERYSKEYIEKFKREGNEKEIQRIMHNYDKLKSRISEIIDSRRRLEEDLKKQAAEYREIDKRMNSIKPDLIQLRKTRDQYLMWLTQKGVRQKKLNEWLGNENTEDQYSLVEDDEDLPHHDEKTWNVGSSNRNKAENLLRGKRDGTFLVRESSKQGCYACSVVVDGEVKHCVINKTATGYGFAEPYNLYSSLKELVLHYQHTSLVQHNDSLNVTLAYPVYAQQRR
T5 sequence (P48736 whole entry): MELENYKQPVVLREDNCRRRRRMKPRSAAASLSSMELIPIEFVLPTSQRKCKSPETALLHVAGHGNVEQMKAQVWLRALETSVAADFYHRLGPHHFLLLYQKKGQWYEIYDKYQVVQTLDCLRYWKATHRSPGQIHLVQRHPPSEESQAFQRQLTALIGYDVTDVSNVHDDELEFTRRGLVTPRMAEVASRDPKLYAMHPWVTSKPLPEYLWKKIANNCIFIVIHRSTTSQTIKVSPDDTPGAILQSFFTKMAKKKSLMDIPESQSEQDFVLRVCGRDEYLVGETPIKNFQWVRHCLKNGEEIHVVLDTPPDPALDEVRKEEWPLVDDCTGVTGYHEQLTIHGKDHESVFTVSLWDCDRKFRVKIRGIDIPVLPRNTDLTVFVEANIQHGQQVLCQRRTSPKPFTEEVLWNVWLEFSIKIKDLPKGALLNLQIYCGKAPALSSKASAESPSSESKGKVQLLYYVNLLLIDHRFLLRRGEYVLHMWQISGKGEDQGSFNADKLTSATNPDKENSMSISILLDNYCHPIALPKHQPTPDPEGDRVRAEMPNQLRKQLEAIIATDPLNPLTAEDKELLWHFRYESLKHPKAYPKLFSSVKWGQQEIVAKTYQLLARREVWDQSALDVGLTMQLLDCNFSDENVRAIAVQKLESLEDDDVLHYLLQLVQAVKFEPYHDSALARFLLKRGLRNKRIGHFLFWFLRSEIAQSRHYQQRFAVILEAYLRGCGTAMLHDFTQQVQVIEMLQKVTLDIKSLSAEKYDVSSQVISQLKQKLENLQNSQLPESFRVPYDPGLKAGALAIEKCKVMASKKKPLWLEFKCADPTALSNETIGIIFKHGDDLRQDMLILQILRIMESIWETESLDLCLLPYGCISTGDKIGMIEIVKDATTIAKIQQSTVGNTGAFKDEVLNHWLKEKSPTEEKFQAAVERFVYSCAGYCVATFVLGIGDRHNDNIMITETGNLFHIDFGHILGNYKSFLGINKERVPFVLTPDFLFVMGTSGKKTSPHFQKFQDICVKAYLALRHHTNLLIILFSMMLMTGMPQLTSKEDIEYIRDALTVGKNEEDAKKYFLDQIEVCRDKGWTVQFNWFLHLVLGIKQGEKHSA
T1 sequence (P42336 whole entry): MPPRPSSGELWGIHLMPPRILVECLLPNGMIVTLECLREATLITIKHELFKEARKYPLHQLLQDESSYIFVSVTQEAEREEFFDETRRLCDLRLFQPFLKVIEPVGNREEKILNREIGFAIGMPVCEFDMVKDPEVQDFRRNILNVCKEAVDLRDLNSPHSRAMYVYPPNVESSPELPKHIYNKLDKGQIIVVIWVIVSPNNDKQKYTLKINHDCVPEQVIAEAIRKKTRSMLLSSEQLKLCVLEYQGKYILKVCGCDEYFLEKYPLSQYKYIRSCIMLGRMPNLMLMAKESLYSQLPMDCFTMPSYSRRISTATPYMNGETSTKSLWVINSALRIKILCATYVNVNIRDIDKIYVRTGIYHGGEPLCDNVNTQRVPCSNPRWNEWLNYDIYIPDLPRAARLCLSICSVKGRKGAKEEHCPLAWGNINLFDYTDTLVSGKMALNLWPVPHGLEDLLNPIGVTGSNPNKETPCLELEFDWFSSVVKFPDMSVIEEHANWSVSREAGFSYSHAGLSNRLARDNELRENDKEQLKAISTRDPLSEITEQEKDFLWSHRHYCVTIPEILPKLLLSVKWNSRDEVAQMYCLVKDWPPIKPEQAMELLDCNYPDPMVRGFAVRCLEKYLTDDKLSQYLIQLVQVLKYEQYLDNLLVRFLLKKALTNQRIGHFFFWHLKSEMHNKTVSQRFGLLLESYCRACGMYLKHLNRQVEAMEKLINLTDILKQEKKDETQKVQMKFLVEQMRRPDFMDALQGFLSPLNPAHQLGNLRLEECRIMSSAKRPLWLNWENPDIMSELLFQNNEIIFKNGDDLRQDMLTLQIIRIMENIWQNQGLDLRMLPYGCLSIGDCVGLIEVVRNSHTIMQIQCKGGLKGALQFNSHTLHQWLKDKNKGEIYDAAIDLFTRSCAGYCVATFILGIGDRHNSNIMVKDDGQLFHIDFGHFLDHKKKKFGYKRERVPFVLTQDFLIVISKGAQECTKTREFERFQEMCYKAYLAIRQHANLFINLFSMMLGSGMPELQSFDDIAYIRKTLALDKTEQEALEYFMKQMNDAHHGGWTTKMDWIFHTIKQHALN
T1 sequence (P27986 whole entry partner): as the sequence (P27986 whole entry partner) above
T3 sequence (O00329 whole entry): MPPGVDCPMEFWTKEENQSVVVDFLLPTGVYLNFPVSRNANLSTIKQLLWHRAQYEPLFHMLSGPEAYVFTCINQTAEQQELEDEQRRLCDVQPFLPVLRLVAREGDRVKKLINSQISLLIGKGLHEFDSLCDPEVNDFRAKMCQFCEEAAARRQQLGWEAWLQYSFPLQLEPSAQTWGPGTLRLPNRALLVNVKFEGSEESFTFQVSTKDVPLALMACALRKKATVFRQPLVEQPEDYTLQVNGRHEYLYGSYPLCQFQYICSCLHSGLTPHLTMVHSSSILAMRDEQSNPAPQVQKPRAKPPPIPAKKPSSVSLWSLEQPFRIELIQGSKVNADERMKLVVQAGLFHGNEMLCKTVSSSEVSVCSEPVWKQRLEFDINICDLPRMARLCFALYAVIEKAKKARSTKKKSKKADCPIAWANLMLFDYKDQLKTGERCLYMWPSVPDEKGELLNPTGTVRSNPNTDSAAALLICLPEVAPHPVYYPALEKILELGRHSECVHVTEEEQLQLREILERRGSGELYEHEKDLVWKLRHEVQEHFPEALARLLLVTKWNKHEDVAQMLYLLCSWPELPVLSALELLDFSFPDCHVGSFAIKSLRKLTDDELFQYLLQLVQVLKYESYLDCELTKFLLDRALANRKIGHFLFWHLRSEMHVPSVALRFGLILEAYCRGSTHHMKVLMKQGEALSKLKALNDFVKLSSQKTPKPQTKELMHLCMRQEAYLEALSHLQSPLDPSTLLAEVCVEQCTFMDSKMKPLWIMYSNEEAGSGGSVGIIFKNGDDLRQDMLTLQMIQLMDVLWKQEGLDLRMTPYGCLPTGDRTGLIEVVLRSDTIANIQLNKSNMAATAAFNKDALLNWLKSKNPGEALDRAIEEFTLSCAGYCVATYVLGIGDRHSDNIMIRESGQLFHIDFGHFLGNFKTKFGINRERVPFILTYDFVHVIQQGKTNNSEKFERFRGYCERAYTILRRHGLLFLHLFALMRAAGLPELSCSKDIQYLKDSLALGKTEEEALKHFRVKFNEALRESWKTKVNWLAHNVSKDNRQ
T3 sequence (P27986 whole entry partner): as the sequence (P27986 whole entry partner) above

SMILES	pIC50 [1]	pIC50 [2]	pIC50 [3]	pIC50 [4]	pIC50 [5]	pIC50 [6]	pIC50 [7]
C[C@H]1COCCN1c1nc(-c2ccc(NC(=O)Nc3cccnc3)cc2)nc(-c2ccccc2S(C)(=O)=O)n1 [Example 3, (S)-1-(4-(4-(3-methylmorpholino)-6-(2-(methylsulfonyl)phenyl)-1,3,5-triazin-2-yl)phenyl)-3-(pyridin-3-yl)urea]	< 5.00	> 7.00	< 5.00	< 5.00	< 5.00	< 5.00	6.00 to 7.00
C[C@H]1COCCN1c1nc(-c2ccc(NC(=O)NC3COC3)cc2)nc(-c2ccccc2S(C)(=O)=O)n1 [Example 9, (S)-1-(4-(4-(3-methylmorpholin)-6-(2-(methylsulfonyl)phenyl)-1,3,5-triazin-2-yl)phenyl)-3-(oxetan-3-yl)urea]	< 5.00	6.00 to 7.00	< 5.00	< 5.00	< 5.00	< 5.00	6.00 to 7.00
CS(=O)(=O)c1ccccc1-c1nc(-c2ccc(NC(=O)NC3CC3)cc2)nc(N2CC3CCC(C2)O3)n1 [Example 11, 1-(4-(4-(8-oxa-3-azabicyclo[3.2.1]octan-3-yl)-6-(2-(methylsulfonyl)phenyl)-1,3,5-triazin-2-yl)phenyl)-3-cyclopropylurea]	< 5.00	> 7.00	< 5.00	< 5.00	< 5.00	< 5.00	> 7.00
CS(=O)(=O)c1ccccc1-c1nc(-c2ccc(NC(=O)NC3CC3)cc2)nc(N2CCOCC2)n1 [Example 12, 1-cyclopropyl-3-(4-(4-(2-(methylsulfonyl)phenyl)-6-morpholino-1,3,5-triazin-2-yl)phenyl)urea]	< 5.00	6.00 to 7.00	< 5.00	< 5.00	< 5.00	< 5.00	6.00 to 7.00
C[C@@H]1COCCN1c1nc(-c2ccc(NC(=O)NC3CC3)cc2)nc(-c2ccccc2S(C)(=O)=O)n1 [Example 13, (R)-1-cyclopropyl-3-(4-(4-(3-methylmorpholino)-6-(2-(methylsulfonyl)phenyl)-1,3,5-triazin-2-yl)phenyl)urea]	< 5.00	> 7.00	< 5.00	< 5.00	< 5.00	< 5.00	6.00 to 7.00
C[C@H]1COCCN1c1nc(-c2ccc(NC(=O)NCC(C)(C)C)cc2)nc(-c2ccccc2S(C)(=O)=O)n1 [Example 30, (S)-1-(4-(4-(3-methylmorpholino)-6-(2-(methylsulfonyl)phenyl)-1,3,5-triazin-2-yl)phenyl)-3-neopentylurea]	< 5.00	–	< 5.00	< 5.00	< 5.00	< 5.00	5.00 to 6.00
C[C@H]1COCCN1c1nc(-c2ccc(NC(=O)NCCC(F)(F)F)cc2)nc(-c2ccccc2S(C)(=O)=O)n1 [Example 31, (S)-1-(4-(4-(3-methylmorpholino)-6-(2-(methylsulfonyl)phenyl)-1,3,5-triazin-2-yl)phenyl)-3-(3,3,3-trifluoropropyl)urea]	< 5.00	–	< 5.00	< 5.00	< 5.00	< 5.00	5.00 to 6.00
C[C@H]1COCCN1c1nc(-c2ccc(NC(=O)NCCC(O)C(F)(F)F)cc2)nc(-c2ccccc2S(C)(=O)=O)n1 (stereo partly drawn) [Example 38, 1-(4-(4-((S)-3-methylmorpholino)-6-(2-(methylsulfonyl)phenyl)-1,3,5-triazin-2-yl)phenyl)-3-(4,4,4-trifluoro-3-hydroxybutyl)urea]	< 5.00	–	< 5.00	< 5.00	< 5.00	< 5.00	< 5.00
